According to patent US20080132539A1, “Hydroxamic Acid Derivative And Age Generation Inhibitor Containing The Derivative” (priority 2003, published 2008):

Legend:
Format in all cases: biochemical
[1] = Glyoxal-trapping activity test (DMB derivatisation, HPLC); settings: 0.02 mM glyoxal, 0.2 mM test compound, PBS, 37° C., 30 minutes
Method: (§1) In 0.2 mL of PBS were incubated 0.02 mM of glyoxal and 0.2 mM of test compound at 37° C. for 30 minutes. Subsequently, a volume of 5 mM DMB (1,2-diamino-4,5-methylenedioxy benzene) solution equivalent to 10 μL of the incubation sample was added, followed by further incubation at 4° C. for 7 hours to react the remaining methyl glyoxal with DMB. After the end of reaction, a 0.4 M phosphate buffer solution (pH 7.2) was added for neutralization, followed by quantitating the modified product of glyoxal-DMB using HPLC.
(§2) HPLC having a YMC-Pack Pro C18 column (φ4.6 mm×150 mm) and employing 5 mM sodium phosphate buffer (pH 7.4)-25% acetonitrile as a mobile phase was used at a flow rate of 0.7 mL/min to determine fluorescence strength at Ex352 nm and Em385 nm.
The proportion of glyoxal trapped by the test compound was calculated as % trapping activity, based on the quantitative value of the total modified product of glyoxal-DMB in the absence of the test compound.

[2] = Methyl glyoxal-trapping activity test (DMB derivatisation, HPLC); settings: 0.02 mM methyl glyoxal, 0.2 mM test compound, PBS, 37° C., 30 minutes
Method: as §1, with “mM of methyl glyoxal and” for “mM of glyoxal and”, “product of methyl glyoxal-DMB using” for “product of glyoxal-DMB using”
as §2
The proportion of methyl glyoxal trapped by the test compound was calculated as % trapping activity, based on the quantitative value of the total modified product of methyl glyoxal-DMB in the absence of the test compound.

[3] = test system: Maillard reaction (lysozyme / fructose, dimer formation); assay: Maillard reaction-inhibiting effects (lysozyme dimer formation with fructose, SDS-PAGE densitometry); settings: 10 mg/mL lysozyme, 200 mM fructose, pH 7.4, 37° C., 4 days, dimer formation inhibition rate
Method: This Example examined Maillard reaction-inhibiting effects using, as test compounds, the compounds produced in the above-described Examples and the commercially available substances arginine hydroxamate (Compound No. 111), tyrosine hydroxamate (Compound No. 112), and tryptophan hydroxamate (Compound No. 113). More specifically, 10 mg/mL lysozyme, 200 mM fructose, and each of the above-described test compounds dissolved in a 0.4 mM sodium phosphate buffer (pH 7.4) so as to provide a concentrations of 0.1, 0.3, 1, or 3 mM were incubated at 37° C. for 4 days. After the incubation, the samples were subjected to SDS-PAGE, stained with Coomassie Brilliant Blue R-250, and quantitated for the formed dimmers using a densitometer. The Maillard reaction-inhibiting activity was defined as the dimmer formation inhibition rate of a test compound calculated on the basis that the amount of dimmer is 100% in the absence of the test compound, using, as blank, the amount of dimer in the absence of fructose and the test compound.

[4] = test compound concentration 0.1 mM
[5] = test compound concentration 0.3 mM
[6] = test compound concentration 1 mM
[7] = test compound concentration 3 mM

| SMILES | Glyoxal-trapping activity (% trapping) [1] [% trapping] | Methyl-glyoxal-trapping activity (% trapping) [2] [% trapping] | Maillard reaction-inhibiting activity (%) [3, 4] [%] | Maillard reaction-inhibiting activity (%) [3, 5] [%] | Maillard reaction-inhibiting activity (%) [3, 6] [%] | Maillard reaction-inhibiting activity (%) [3, 7] [%] |
| --- | --- | --- | --- | --- | --- | --- |
| NC(N)=NCCC[C@H](N)C(=O)NO [Compound No. 111, arginine hydroxamate] | 75.2 ± 1.3 | 77.6 ± 0.5 | 10 | 17 | 75 | 98 |
| N[C@@H](Cc1ccc(O)cc1)C(=O)NO [Compound No. 112, tyrosine hydroxamate] | 67.8 ± 1.2 | 74.4 ± 2.7 | 24 | 61 | 99 | 101 |
| NC(Cc1c[nH]c2ccccc12)C(=O)NO (stereo not drawn) [Compound No. 113, tryptophan hydroxamate] | 75.9 ± 0.9 | 96.2 ± 0.7 | 42 | 76 | 99 | 102 |
